The values that follow come from publication PMC4422947 (Acta Pharmacologica Sinica, 2015).

The format of data set [1] is in vivo, rat. As to conditions: after iv or po administration of tanshinol; data not shown.
The target of a further data set is T1, CYP2B6 (Homo sapiens, UniProt P20813).
T1 sequence (P20813 1-491): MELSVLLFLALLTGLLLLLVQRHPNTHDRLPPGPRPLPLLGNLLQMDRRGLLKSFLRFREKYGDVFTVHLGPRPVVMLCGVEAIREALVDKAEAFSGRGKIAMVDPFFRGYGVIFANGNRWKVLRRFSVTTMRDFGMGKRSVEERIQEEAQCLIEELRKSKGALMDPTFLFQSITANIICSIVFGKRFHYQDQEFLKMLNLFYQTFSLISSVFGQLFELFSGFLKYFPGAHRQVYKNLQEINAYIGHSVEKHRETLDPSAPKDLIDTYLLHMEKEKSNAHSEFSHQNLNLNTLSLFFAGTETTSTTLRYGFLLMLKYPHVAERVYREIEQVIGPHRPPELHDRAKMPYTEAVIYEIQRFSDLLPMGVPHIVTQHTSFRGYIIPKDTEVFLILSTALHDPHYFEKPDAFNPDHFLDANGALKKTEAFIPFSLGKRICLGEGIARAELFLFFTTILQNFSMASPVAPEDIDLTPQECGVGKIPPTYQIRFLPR
The data set can be described thus: Inhibition of cDNA-expressed human CYP2B6. It is filed as in vitro ADME. The following applies: CYP2B6, 7-ethoxy-4-trifluoromethylcoumarin O-deethylation.

The next data set addresses T2, CYP2A6 (Homo sapiens, UniProt P11509).
T2 sequence (P11509 1-494): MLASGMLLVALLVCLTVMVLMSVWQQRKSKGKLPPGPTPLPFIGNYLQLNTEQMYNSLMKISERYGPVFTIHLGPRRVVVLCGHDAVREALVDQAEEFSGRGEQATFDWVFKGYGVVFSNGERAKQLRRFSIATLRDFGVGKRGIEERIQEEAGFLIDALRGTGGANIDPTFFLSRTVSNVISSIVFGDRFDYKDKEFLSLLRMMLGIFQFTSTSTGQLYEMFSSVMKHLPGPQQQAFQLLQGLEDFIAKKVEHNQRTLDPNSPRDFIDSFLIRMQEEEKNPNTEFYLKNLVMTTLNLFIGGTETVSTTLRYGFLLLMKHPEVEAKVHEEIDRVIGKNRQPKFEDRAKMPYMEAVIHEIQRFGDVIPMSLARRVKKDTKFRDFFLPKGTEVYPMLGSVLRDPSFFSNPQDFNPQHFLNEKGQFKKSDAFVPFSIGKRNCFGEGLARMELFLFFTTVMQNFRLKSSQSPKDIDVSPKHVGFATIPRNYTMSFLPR
The data set can be described thus: Inhibition of cDNA-expressed human CYP2A6. The following applies: CYP2A6, coumarin 7-hydroxylation. It is filed as in vitro ADME.

In general, IC50 refers to the concentration at which inhibition is half-maximal.

As for 8-O-methyltanshinol, the “Detection in rat samples” value in data set [1] is “not detected”.
Take `N[C@@H]1C[C@H]1c1ccccc1` (racemic) [tranylcypromine]: the figures for the IC50 at CYP2B6 and against CYP2A6 were 5900 nM and 70 nM, respectively.
Regarding `COC(=O)C(O)Cc1ccc(O)c(O)c1` (stereo not shown) [tanshinol methyl ester], the “Detection in rat samples” value in data set [1] is recorded as “not detected”.
